Measured values taken from ChEMBL document CHEMBL5154863, “Design and synthesis of quinolinium-based derivatives targeting FtsZ for antibacterial evaluation and mechanistic study” (Eur J Med Chem, 2022).
Activity calls are given as the source filed them. No cut-off for these calls is given here.

Key:
Enterococcus faecium [1] = test: Antibacterial activity against vancomycin-resistant Enterococcus faecium clinical isolate assessed as inhibition of bacterial growth incubated for 20 to 24 hrs by broth micro dilution method; assay type: functional; settings: time 20-24 hrs
Staphylococcus aureus [2] = test: Induction of morphological changes in Staphylococcus aureus ATCC 29213 assessed as enlargement of cell size at 0.5 times MIC for 4 hrs by microscopic analysis; assay type: functional, organism-based
Staphylococcus aureus [3] = test: Antibacterial activity against methicillin-resistant Staphylococcus aureus ATCC 43300 assessed as inhibition of bacterial growth incubated for 20 to 24 hrs by broth micro dilution method; assay type: functional; settings: time 20-24 hrs
Enterococcus faecium [4] = test: Antibacterial activity against Enterococcus faecium ATCC 49624 assessed as inhibition of bacterial growth incubated for 20 to 24 hrs by broth micro dilution method; assay type: functional; settings: time 20-24 hrs
[5] = system: Staphylococcus epidermidis; test: Antibacterial activity against Staphylococcus epidermidis ATCC 12228 assessed as inhibition of bacterial growth incubated for 20 to 24 hrs by broth micro dilution method; assay type: functional; settings: time 20-24 hrs
Staphylococcus aureus [6] = test: Antibacterial activity against methicillin-resistant Staphylococcus aureus ATCC BAA-1720 assessed as inhibition of bacterial growth incubated for 20 to 24 hrs by broth micro dilution method; assay type: functional; settings: time 20-24 hrs
[7] = Ratio of MBC for bactericidal activity against Staphylococcus aureus ATCC 43300 to MIC for antibacterial activity against Staphylococcus aureus ATCC 43300; assay type: functional
Staphylococcus aureus [8] = test: Antibacterial activity against methicillin-resistant Staphylococcus aureus ATCC BAA41 assessed as fractional inhibitory concentration index incubated for 24 hrs by checker board assay; assay type: functional
Escherichia coli [9] = test: Antibacterial activity against Escherichia coli ATCC 25922 assessed as inhibition of bacterial growth incubated for 20 to 24 hrs by broth micro dilution method; assay type: functional; settings: time 20-24 hrs
Staphylococcus aureus [10] = test: Bactericidal activity against Staphylococcus aureus ATCC 29213 assessed as inhibition of bacterial growth incubated for 24 hrs by resazurin dye based microtiter plate assay; assay type: functional
Staphylococcus aureus [11] = test: Antibacterial activity against methicillin-resistant Staphylococcus aureus ATCC 33592 assessed as inhibition of bacterial growth incubated for 20 to 24 hrs by broth micro dilution method; assay type: functional; settings: time 20-24 hrs
Enterococcus faecium [12] = test: Antibacterial activity against vancomycin resistant Enterococcus faecium ATCC 700221 assessed as inhibition of bacterial growth incubated for 20 to 24 hrs by broth micro dilution method; assay type: functional; settings: time 20-24 hrs
Staphylococcus aureus [13] = test: Induction of drug resistance against Staphylococcus aureus ATCC 29213 assessed as fold increase in MIC after 16 passage; assay type: functional
[14] = Cytotoxicity against mouse L929 cells incubated for 48 hrs by MTT assay; assay type: toxicity, cell-based
Staphylococcus aureus [15] = test: Antibacterial activity against Staphylococcus aureus ATCC 29213 infected in L929 cells assessed as inhibition of bacterial growth incubated for 20 to 24 hrs by broth micro dilution method; assay type: functional; settings: time 20-24 hrs
Klebsiella pneumoniae = test: Antibacterial activity against NDM-1 expressing Klebsiella pneumoniae ATCC BAA 2470 assessed as inhibition of bacterial growth incubated for 20 to 24 hrs by broth micro dilution method; assay type: functional; settings: time 20-24 hrs
Staphylococcus aureus [16] = test: Antibacterial activity against Staphylococcus aureus ATCC 29213 infected in HK-2 cells assessed as inhibition of bacterial growth incubated for 20 to 24 hrs by broth micro dilution method; assay type: functional; settings: time 20-24 hrs
Erythrocyte = test: Hemolytic activity in Kunming mouse erythrocyte at 1 to 64 ug/ml incubated for 1 hr; assay type: toxicity, cell-based; settings: dose 1-64 µg/ml
Escherichia coli [17] = test: Antibacterial activity against NDM-1 expressing Escherichia coli ATCC BAA2469 assessed as inhibition of bacterial growth incubated for 20 to 24 hrs by broth micro dilution method; assay type: functional; settings: time 20-24 hrs
Staphylococcus aureus [18] = test: Antibacterial activity against methicillin-resistant Staphylococcus aureus ATCC BAA41 assessed as inhibition of bacterial growth incubated for 24 hrs by checker board assay; assay type: functional
Bacillus subtilis [19] = test: Bactericidal activity against Bacillus subtilis CMCC (B) 63501 assessed as inhibition of bacterial growth incubated for 24 hrs by resazurin dye based microtiter plate assay; assay type: functional
[20] = biological target: T1, Cell division protein FtsZ (Staphylococcus aureus) (UniProt P0A031); test: Binding affinity to Staphylococcus aureus FtsZ assessed as decrease in random coil structure at 8 ug/ml incubated for 30 mins by circular dichroism method; settings: dose 8.0 µg/ml
T1 sequence (whole entry): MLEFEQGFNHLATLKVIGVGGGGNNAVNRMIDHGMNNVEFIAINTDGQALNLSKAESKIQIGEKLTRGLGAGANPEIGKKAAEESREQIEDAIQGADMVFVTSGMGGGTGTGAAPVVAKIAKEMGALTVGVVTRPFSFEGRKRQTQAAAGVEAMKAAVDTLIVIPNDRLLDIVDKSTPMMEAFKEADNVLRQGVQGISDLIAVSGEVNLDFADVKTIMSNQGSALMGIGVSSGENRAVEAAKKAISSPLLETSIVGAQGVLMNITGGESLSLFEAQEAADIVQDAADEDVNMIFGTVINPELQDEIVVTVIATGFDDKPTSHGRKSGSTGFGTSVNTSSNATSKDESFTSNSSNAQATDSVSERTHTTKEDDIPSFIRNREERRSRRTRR

Staphylococcus aureus [21] = test: Bactericidal activity against Staphylococcus aureus ATCC 43300 assessed as inhibition of bacterial growth incubated for 24 hrs by resazurin dye based microtiter plate assay; assay type: functional
Bacillus subtilis [22] = test: Antibacterial activity against Bacillus subtilis CMCC (B) 63501 assessed as inhibition of bacterial growth incubated for 20 to 24 hrs by broth micro dilution method; assay type: functional; settings: time 20-24 hrs
Enterococcus faecium [23] = test: Bactericidal activity against Enterococcus faecium ATCC 700221 assessed as inhibition of bacterial growth incubated for 24 hrs by resazurin dye based microtiter plate assay; assay type: functional
Staphylococcus aureus [24] = test: Synergistic antibacterial activity against methicillin-resistant Staphylococcus aureus ATCC BAA41 assessed as inhibition of bacterial growth incubated for 24 hrs in presence of methicillin by checker board assay; assay type: functional
[25] = biological target: T1, Cell division protein FtsZ (Staphylococcus aureus); test: Induction of Staphylococcus aureus FtsZ polymerization expressed in Escherichia coli BL21 (DE3) assessed as increase in absorbance at 2 to 8 ug/ml by microplate reader method; settings: dose 2-8 µg/ml
[26] = biological target: T1, Cell division protein FtsZ (Staphylococcus aureus); test: Binding affinity to Staphylococcus aureus FtsZ assessed as increase in alpha helix structure at 8 ug/ml incubated for 30 mins by circular dichroism method; settings: dose 8.0 µg/ml
Staphylococcus aureus [27] = test: Antibacterial activity against Staphylococcus aureus ATCC 29213 assessed as inhibition of bacterial growth incubated for 20 to 24 hrs by broth micro dilution method; assay type: functional; settings: time 20-24 hrs
Bacillus subtilis [28] = test: Induction of drug resistance against Bacillus subtilis CMCC (B) 63501 measured after 16 passages; assay type: functional; settings: dose <= 64.0 µg/ml, time 30.0 min
Bacillus subtilis [29] = test: Induction of morphological changes in Bacillus subtilis CMCC (B) 63501 assessed as elongation of bacterial cell at 0.5 times MIC for 4 hrs (reference value: 3 to 5 um) by microscopic analysis; assay type: functional
[30] = biological target: T2, Cell division protein FtsZ (Staphylococcus aureus, UniProt P0A031); test: Binding affinity to Staphylococcus aureus FtsZ assessed as dissociation constant by isothermal titration calorimetry
T2 sequence (P0A031 whole entry): T1 sequence (whole entry)

Acinetobacter baumannii = test: Antibacterial activity against multi-drug resistant Acinetobacter baumannii ATCC 19606 assessed as inhibition of bacterial growth incubated for 20 to 24 hrs by broth micro dilution method; assay type: functional; settings: time 20-24 hrs
Escherichia coli [31] = test: Antibacterial activity against Escherichia coli ATCC 8739 assessed as inhibition of bacterial growth incubated for 20 to 24 hrs by broth micro dilution method; assay type: functional; settings: time 20-24 hrs
[32] = Ratio of MBC for bactericidal activity against Bacillus subtilis CMCC (B) 63501 to MIC for antibacterial activity against Bacillus subtilis CMCC (B) 63501; assay type: functional
[33] = Ratio of MBC for bactericidal activity against Staphylococcus aureus ATCC 29213 to MIC for antibacterial activity against Staphylococcus aureus ATCC 29213; assay type: functional
[34] = Ratio of MBC for bactericidal activity against Enterococcus faecium ATCC 700221 to MIC for antibacterial activity against Enterococcus faecium ATCC 700221; assay type: functional
[35] = biological target: T1, Cell division protein FtsZ (Staphylococcus aureus); test: Binding affinity to Staphylococcus aureus FtsZ assessed as decrease in beta turn structure at 8 ug/ml incubated for 30 mins by circular dichroism method; settings: dose 8.0 µg/ml
[36] = biological target: T1, Cell division protein FtsZ (Staphylococcus aureus); test: Induction of Staphylococcus aureus FtsZ polymerization expressed in Escherichia coli BL21 (DE3) assessed as increase in absorbance at 2 to 8 ug/ml in presence of GTP by microplate reader method; settings: dose 2-8 µg/ml, DDE = dose-dependent effect
[37] = biological target: T1, Cell division protein FtsZ (Staphylococcus aureus); test: Binding affinity to Staphylococcus aureus FtsZ assessed as equilibrium binding constant by isothermal titration calorimetry
[38] = biological target: T1, Cell division protein FtsZ (Staphylococcus aureus); test: Binding affinity to Staphylococcus aureus FtsZ assessed as decrease in other structure at 8 ug/ml incubated for 30 mins by circular dichroism method; settings: dose 8.0 µg/ml
Pseudomonas aeruginosa = test: Antibacterial activity against […] Pseudomonas aeruginosa ATCC 27853 assessed as inhibition of bacterial growth incubated for 20 to 24 hrs by broth micro dilution method; assay type: functional; settings: time 20-24 hrs
[39] = Cytotoxicity against human HK-2 cells incubated for 48 hrs by MTT assay; assay type: toxicity, cell-based
Enterococcus faecalis = test: Antibacterial activity against Enterococcus faecalis ATCC 29212 assessed as inhibition of bacterial growth incubated for 20 to 24 hrs by broth micro dilution method; assay type: functional; settings: time 20-24 hrs
Staphylococcus aureus [40] = test: Antibacterial activity against vancomycin-intermediate Staphylococcus aureus Mu50 assessed as inhibition of bacterial growth incubated for 20 to 24 hrs by broth micro dilution method; assay type: functional; settings: time 20-24 hrs

Compound: CC1CCN(c2cc(/C=C/c3ccc(N(C)C)cc3)c3ccccc3[n+]2C)CC1.[I-]
- MIC (Enterococcus faecium [1]): 16 mg/L
- Activity (Staphylococcus aureus [2]): Active
- MIC (Staphylococcus aureus [3]): 4 mg/L
- MIC (Enterococcus faecium [4]): 16 mg/L
- MIC [5]: 1 mg/L
- MIC (Staphylococcus aureus [6]): 4 mg/L
- Ratio [7]: >4
- fractional inhibitory concentration index (FICI) (Staphylococcus aureus [8]): 0.3125
- MIC (Escherichia coli [9]): 32 mg/L
- MBC (Staphylococcus aureus [10]): 16 mg/L
- MIC (Staphylococcus aureus [11]): 4 mg/L
- MIC (Enterococcus faecium [12]): 2 mg/L
- fold change (FC) (Staphylococcus aureus [13]): 8
- IC50 at 48 h [14]: 11.3 mg/L
- MIC (Staphylococcus aureus [15]): 2 mg/L
- MIC (Klebsiella pneumoniae): > 64 mg/L
- MIC (Staphylococcus aureus [16]): 2 mg/L
- IC5 (Erythrocyte): 32 µg/mL
- MIC (Escherichia coli [17]): 64 mg/L
- MIC (Staphylococcus aureus [18]): 16 mg/L
- MBC (Bacillus subtilis [19]): 16 mg/L
- Activity [20]: Active
- MBC (Staphylococcus aureus [21]): 32 mg/L
- MIC (Bacillus subtilis [22]): 8 mg/L
- MBC (Enterococcus faecium [23]): 8 mg/L
- MIC (Staphylococcus aureus [24]): 4 mg/L
- Activity [25]: Active
- Activity [26]: Active
- MIC (Staphylococcus aureus [27]): 2 mg/L
- Activity (Bacillus subtilis [28]): Active
- Activity (Bacillus subtilis [29]): 30 um
- Kd [30]: 3.86 µM
- MIC (Acinetobacter baumannii): > 64 mg/L
- MIC (Escherichia coli [31]): 64 mg/L
- Ratio [32]: 2
- Ratio [33]: >4
- Ratio [34]: 4
- Activity [35]: Active
- Activity [36]: Dde
- Kb [37]: 2.08 10^5/M
- Activity [38]: Active
- MIC (Pseudomonas aeruginosa): > 64 mg/L
- IC50 at 48 h [39]: 8.89 mg/L
- MIC (Enterococcus faecalis): 16 mg/L
- MIC (Staphylococcus aureus [40]): 4 mg/L
